Patent US20220119354A1, “DIAMINO-SUBSTITUTED PYRIDINES AND PYRIMIDINES AS HERBICIDES” (FMC Corporation, priority 2019, published 2022)

Legend:
Format in all cases: in vivo
kochia (Kochia scoparia) [1] = assay: Test A postemergence, kochia; details: 0 to 100 scale, 0 no effect, 100 complete control
Outline: (§1)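 Visual injury scores (0 no effect to 100 complete control) were assigned about 10 d after treatment by comparison with untreated controls. Test chemicals, formulated in a surfactant-containing non-phytotoxic solvent, were applied to soil at planting or to plants at the one- to two-leaf stage.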

kochia (Kochia scoparia) [2] = assay: Test A preemergence, kochia; details: 0 to 100 scale, 0 is no effect, 100 is complete control
Outline: as §1

[3] = test system: pigweed (Amaranthus retroflexus); assay: Test A postemergence, pigweed; details: 0 to 100 scale, 0 no effect, 100 complete control
Outline: as §1

[4] = test system: foxtail, giant (Setaria faberii); assay: Test A preemergence, giant foxtail; details: 0 to 100 scale, 0 is no effect, 100 is complete control
Outline: as §1

[5] = test system: blackgrass (Alopecurus myosuroides); assay: Test A postemergence, blackgrass; details: 0 to 100 scale, 0 no effect, 100 complete control
Outline: as §1

[6] = test system: sedge, umbrella (small-flower umbrella sedge, Cyperus difformis); assay: Test B flooded paddy test, umbrella sedge; details: Flood, 250 g ai/ha, applied to paddy water, 2-leaf stage, visual evaluation after 13 to 15 d
Outline: (§2)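 2-leaf seedlings; pots flooded 3 cm above soil; compound added straight to paddy water; depth maintained. Greenhouse 13–15 d. Visual rating vs controls, 0–100 scale (0 = no effect, 100 = complete control).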

[7] = test system: ryegrass, Italian (Lolium multiflorum); assay: Test A postemergence, Italian ryegrass; details: 0 to 100 scale, 0 no effect, 100 complete control
Outline: as §1

[8] = test system: foxtail, giant (Setaria faberii); assay: Test A postemergence, giant foxtail; details: 0 to 100 scale, 0 no effect, 100 complete control
Outline: as §1

[9] = test system: galium (catchweed bedstraw, Galium aparine); assay: Test A postemergence, galium; details: 0 to 100 scale, 0 no effect, 100 complete control
Outline: as §1

[10] = test system: wheat (Triticum aestivum); assay: Test A postemergence, wheat; details: 0 to 100 scale, 0 no effect, 100 complete control
Outline: as §1

[11] = test system: ragweed (common ragweed, Ambrosia elatior); assay: Test A preemergence, ragweed; details: 0 to 100 scale, 0 is no effect, 100 is complete control
Outline: as §1

[12] = test system: barnyardgrass (Echinochloa crus-galli); assay: Test A preemergence, barnyardgrass; details: 0 to 100 scale, 0 is no effect, 100 is complete control
Outline: as §1

corn (Zea mays) = assay: Test A postemergence, corn; details: 0 to 100 scale, 0 no effect, 100 complete control
Outline: as §1

[13] = test system: barnyardgrass (Echinochloa crus-galli); assay: Test B flooded paddy test, barnyardgrass; details: Flood, 250 g ai/ha, applied to paddy water, 2-leaf stage, visual evaluation after 13 to 15 d
Outline: as §2

[14] = test system: pigweed (Amaranthus retroflexus); assay: Test A preemergence, pigweed; details: 0 to 100 scale, 0 is no effect, 100 is complete control
Outline: as §1

[15] = test system: barnyardgrass (Echinochloa crus-galli); assay: Test A postemergence, barnyardgrass; details: 0 to 100 scale, 0 no effect, 100 complete control
Outline: as §1

[16] = test system: ducksalad (Heteranthera limosa); assay: Test B flooded paddy test, ducksalad; details: Flood, 250 g ai/ha, applied to paddy water, 2-leaf stage, visual evaluation after 13 to 15 d
Outline: as §2

rice (Oryza sativa) = assay: Test B flooded paddy test, rice; details: Flood, 250 g ai/ha, applied to paddy water, 2-leaf stage, visual evaluation after 13 to 15 d
Outline: as §2

[17] = test system: ryegrass, Italian (Lolium multiflorum); assay: Test A preemergence, Italian ryegrass; details: 0 to 100 scale, 0 is no effect, 100 is complete control
Outline: as §1

[18] = test system: ragweed (common ragweed, Ambrosia elatior); assay: Test A postemergence, ragweed; details: 0 to 100 scale, 0 no effect, 100 complete control
Outline: as §1

| Structure (SMILES) | Plant response rating, Kochia (kochia (Kochia scoparia) [1]; 125 g ai/ha) | Plant response rating, Kochia (kochia (Kochia scoparia) [1]; 500 g ai/ha) | Kochia plant response rating (kochia (Kochia scoparia) [2]; 125 g ai/ha) | Kochia plant response rating (kochia (Kochia scoparia) [2]; 500 g ai/ha) | Plant response rating, Pigweed ([3]; 125 g ai/ha) | Plant response rating, Pigweed ([3]; 500 g ai/ha) | Foxtail, Giant plant response rating ([4]; 125 g ai/ha) | Foxtail, Giant plant response rating ([4]; 500 g ai/ha) | Plant response rating, Blackgrass ([5]; 125 g ai/ha) | Plant response rating, Blackgrass ([5]; 500 g ai/ha) | Plant response rating, Sedge, Umbrella (0 to 100 scale, 0 is no effect, 100 is complete control) [6] | Plant response rating, Ryegrass, Italian ([7]; 125 g ai/ha) | Plant response rating, Ryegrass, Italian ([7]; 500 g ai/ha) | Plant response rating, Foxtail, Giant ([8]; 125 g ai/ha) | Plant response rating, Foxtail, Giant ([8]; 500 g ai/ha) | Plant response rating, Galium ([9]; 125 g ai/ha) | Plant response rating, Galium ([9]; 500 g ai/ha) | Plant response rating, Wheat ([10]; 125 g ai/ha) | Plant response rating, Wheat ([10]; 500 g ai/ha) | Ragweed plant response rating ([11]; 125 g ai/ha) | other results |
| --- | --- | --- | --- | --- | --- | --- | --- | --- | --- | --- | --- | --- | --- | --- | --- | --- | --- | --- | --- | --- | --- |
| C[C@@H](Nc1ncc(C(F)(F)F)c(N)n1)c1cc2ccccc2n1C [Compound 98] | 20 | 40 | 0 | 0 | 60 | 90 | 0 | 40 | 0 | 0 | 0 | 0 | 0 | 0 | 0 | 50 | 70 | 0 | 0 | 20 | Ragweed plant response rating ([11]; 500 g ai/ha): 80; Barnyardgrass plant response rating ([12]; 125 g ai/ha): 20; Barnyardgrass plant response rating ([12]; 500 g ai/ha): 50; Plant response rating, Corn (corn (Zea mays); 125 g ai/ha): 0; Plant response rating, Corn (corn (Zea mays); 500 g ai/ha): 0; Plant response rating, Barnyardgrass (0 to 100 scale, 0 is no effect, 100 is complete control) [13]: 0; Pigweed plant response rating ([14]; 125 g ai/ha): 0; Pigweed plant response rating ([14]; 500 g ai/ha): 100; Plant response rating, Barnyardgrass ([15]; 125 g ai/ha): 0; Plant response rating, Barnyardgrass ([15]; 500 g ai/ha): 0; Plant response rating, Ducksalad (0 to 100 scale, 0 is no effect, 100 is complete control) [16]: 0; Plant response rating, Rice (0 to 100 scale, 0 is no effect, 100 is complete control) (rice (Oryza sativa)): 0; Ryegrass, Italian plant response rating ([17]; 125 g ai/ha): 20; Ryegrass, Italian plant response rating ([17]; 500 g ai/ha): 40; Plant response rating, Ragweed ([18]; 125 g ai/ha): 30; Plant response rating, Ragweed ([18]; 500 g ai/ha): 60 |
| CC(Nc1ncc([N+](=O)[O-])c(N)n1)c1cc2ccccc2s1 (stereo not drawn) [Compound 99] | 50 | 80 | 0 | 90 | 50 | 70 | 70 | 100 | 0 | 0 | 0 | 0 | 40 | 10 | 60 | 20 | 70 | 0 | 0 | 90 | Ragweed plant response rating ([11]; 500 g ai/ha): 100; Barnyardgrass plant response rating ([12]; 125 g ai/ha): 40; Barnyardgrass plant response rating ([12]; 500 g ai/ha): 90; Plant response rating, Corn (corn (Zea mays); 125 g ai/ha): 0; Plant response rating, Corn (corn (Zea mays); 500 g ai/ha): 30; Plant response rating, Barnyardgrass (0 to 100 scale, 0 is no effect, 100 is complete control) [13]: 0; Pigweed plant response rating ([14]; 125 g ai/ha): 40; Pigweed plant response rating ([14]; 500 g ai/ha): 100; Plant response rating, Barnyardgrass ([15]; 125 g ai/ha): 30; Plant response rating, Barnyardgrass ([15]; 500 g ai/ha): 70; Plant response rating, Ducksalad (0 to 100 scale, 0 is no effect, 100 is complete control) [16]: 0; Plant response rating, Rice (0 to 100 scale, 0 is no effect, 100 is complete control) (rice (Oryza sativa)): 0; Ryegrass, Italian plant response rating ([17]; 125 g ai/ha): 20; Ryegrass, Italian plant response rating ([17]; 500 g ai/ha): 80; Plant response rating, Ragweed ([18]; 125 g ai/ha): 20; Plant response rating, Ragweed ([18]; 500 g ai/ha): 80 |
| CC(Nc1ncc(C(F)(F)F)c(N)n1)c1cc2c(Cl)cccc2o1 (stereo not drawn) [Compound 100] | 60 | 100 | 90 | 90 | 100 | 100 | 90 | 100 | 30 | 70 | 35 | 40 | 70 | 20 | 50 | 100 | 100 | 50 | 40 | 50 | Ragweed plant response rating ([11]; 500 g ai/ha): 100; Barnyardgrass plant response rating ([12]; 125 g ai/ha): 60; Barnyardgrass plant response rating ([12]; 500 g ai/ha): 90; Plant response rating, Corn (corn (Zea mays); 125 g ai/ha): 0; Plant response rating, Corn (corn (Zea mays); 500 g ai/ha): 20; Plant response rating, Barnyardgrass (0 to 100 scale, 0 is no effect, 100 is complete control) [13]: 45; Pigweed plant response rating ([14]; 125 g ai/ha): 100; Pigweed plant response rating ([14]; 500 g ai/ha): 100; Plant response rating, Barnyardgrass ([15]; 125 g ai/ha): 30; Plant response rating, Barnyardgrass ([15]; 500 g ai/ha): 90; Plant response rating, Ducksalad (0 to 100 scale, 0 is no effect, 100 is complete control) [16]: 20; Plant response rating, Rice (0 to 100 scale, 0 is no effect, 100 is complete control) (rice (Oryza sativa)): 0; Ryegrass, Italian plant response rating ([17]; 125 g ai/ha): 0; Ryegrass, Italian plant response rating ([17]; 500 g ai/ha): 90; Plant response rating, Ragweed ([18]; 125 g ai/ha): 60; Plant response rating, Ragweed ([18]; 500 g ai/ha): 100 |
| C[C@@H](Nc1ncc(C#N)c(N)n1)c1cc2ccccc2s1 [Compound 104] | 10 | 60 | 30 | 90 | 80 | 100 | 20 | 60 | 0 | 20 | 0 | 0 | 70 | 0 | 20 | 40 | 80 | 0 | 0 | 60 | Ragweed plant response rating ([11]; 500 g ai/ha): 100; Barnyardgrass plant response rating ([12]; 125 g ai/ha): 0; Barnyardgrass plant response rating ([12]; 500 g ai/ha): 0; Plant response rating, Corn (corn (Zea mays); 125 g ai/ha): 0; Plant response rating, Corn (corn (Zea mays); 500 g ai/ha): 0; Plant response rating, Barnyardgrass (0 to 100 scale, 0 is no effect, 100 is complete control) [13]: 0; Pigweed plant response rating ([14]; 125 g ai/ha): 50; Pigweed plant response rating ([14]; 500 g ai/ha): 80; Plant response rating, Barnyardgrass ([15]; 125 g ai/ha): 0; Plant response rating, Barnyardgrass ([15]; 500 g ai/ha): 20; Plant response rating, Ducksalad (0 to 100 scale, 0 is no effect, 100 is complete control) [16]: 0; Plant response rating, Rice (0 to 100 scale, 0 is no effect, 100 is complete control) (rice (Oryza sativa)): 0; Ryegrass, Italian plant response rating ([17]; 125 g ai/ha): 30; Ryegrass, Italian plant response rating ([17]; 500 g ai/ha): 60; Plant response rating, Ragweed ([18]; 125 g ai/ha): 20; Plant response rating, Ragweed ([18]; 500 g ai/ha): 80 |
